Test results reported in patent US10189863B2, “5,6-dihydro-4H-benzo[b]thieno-[2,3-d]azepine derivatives” (PULMOCIDE LIMITED, priority 2014, dated 2019).

Key:
RSV B Washington strain = assay: Assessment of RSV induced CPE in HEp2 cells (RSV B Washington strain); type: cell-based; conditions: human respiratory syncytial virus, HEp2 cells; for IC50: HEp-2, 144 h, 1 MOI, 6 days, read-out: RSV B CPE IC50; for inhibition at 1 µg/mL: HEp-2, Inhibition (%) at 1 μg/mL, read-out: RSV B CPE % Inhibition
Method: (§1) Assessment of RSV Induced CPE in HEp2 Cells
(§2) HEp2 cells were seeded (10^3/well/50 μL) in 384-well plates (Catalogue number 353962, BD Falcon, Oxford, UK) in […] containing 2 mM L-glutamine and 1 mM sodium pyruvate one day before infection. RSV A2 strain (#0709161v, NCPV, Public Health England, Wiltshire) or RSV B Washington strain (VR-1580, ATCC, Manassas, Va. 20108) virus solutions were prepared in serum free-DMEM with 2 mM L-glutamine and 1 mM sodium pyruvate, and then added (50 μL/well) to achieve a final virus concentration of 1 MOI. Simultaneously test compounds (0.5 μL DMSO solution) were added to 100 μL of HEp2 cell culture with virus solution to provide a final DMSO solution of 0.5%. Plates were incubated (37° C./5% CO2) for 5 days for studies using RSV A2 strain or 6 days for those using RSV B strain, and then resazurin sodium salt (5 μL of 0.03% solution; Sigma-Aldrich, Dorset, UK) was added to each well and the plate incubated for a further 6 hr (37° C./5% CO2). The fluorescence of each well [545 nm (excitation)/590 nm (emission)] was determined using a multi-scanner (Clariostar: BMG, Buckinghamshire, UK). The percentage inhibition for each well was calculated and the IC50, IC75 and IC90 values were calculated from the concentration-response curve generated for each test compound.

RSV A2 strain = assay: Assessment of RSV induced CPE in HEp2 cells (RSV A2 strain); type: cell-based; conditions: human respiratory syncytial virus, HEp2 cells; for IC50: HEp-2, 120 h, 1 MOI, 5 days, read-out: RSV A2 CPE IC50; for inhibition at 0.1 µg/mL / inhibition at 0.01 µg/mL: HEp-2; for inhibition at 0.1 µg/mL: Inhibition (%) at 0.1 μg/mL, read-out: RSV A2 CPE % Inhibition; for inhibition at 0.01 µg/mL: Inhibition (%) at 0.01 μg/mL
Method: as §1, §2

[1] = Cell viability: resazurin assay; type: cell-based, human; conditions: human, HEp2 cells
Method: Cell Viability: Resazurin Assay
HEp2 cells were seeded in 384-well plates (10^3/well/50 μL; BD Falcon Ref 353962) in FBS DMEM (5%, containing 2 mM L-glutamine and 1 mM sodium pyruvate) one day before experimentation. Serum-free DMEM (50 μL) was added to test wells while for control wells the media was removed and sterile water (100 μL) was added. Test compounds (0.5 μL DMSO solution) were added to give a final DMSO concentration of 0.5%. Hep2 cells were incubated with each test compound for 5 days (37° C./5% CO2 in 5% FBS) and then resazurin stock solution (5 μL; 0.03%) was added to each well and the plate incubated for a further 6 hr (37° C./5% CO2). The fluorescence of each well at 545 nm (excitation) and 590 nm (emission) was determined using a multi-scanner (Clariostar: BMG Labtech). The percentage loss of cell viability was calculated for each well relative to vehicle (0.5% DMSO) treatment.
Any apparent increase in cell viability associated with test compound treatment relative to vehicle is consequently tabulated as a negative percentage. Where appropriate, a CC50 value was calculated from the concentration-response curve generated from the concentration-response curve for each test compound.

Compound | IC50 (RSV B Washington strain) [nM] | IC50 (RSV A2 strain) [nM] | inhibition at 1 µg/mL (RSV B Washington strain) [%] | inhibition at 0.1 µg/mL (RSV A2 strain) [%] | CC50 at 5 days [1] [µM] | inhibition at 0.01 µg/mL (RSV A2 strain) [%]
Cc1ccc(NC(=O)c2cc3c(s2)-c2ccccc2N(C(=O)c2ccc(NC(=O)c4cccnc4N4CC5(CCOCC5)C4)cc2)CC3)c(F)c1 [Example 22, 6-(4-(2-(7-oxa-2-azaspiro[3.5]nonan-2-yl)nicotinamido)benzoyl)-N-(2-fluoro-4-methylphenyl)-5,6-dihydro-4H-benzo[b]thieno[2,3-d]azepine-2-carboxamide] | 37.3 | 0.96 | 77 | 96 | > 14.2 | 
O=C(Nc1c(F)cc(F)cc1F)c1cc2c(s1)-c1ccccc1N(C(=O)c1ccc(NC(=O)c3cccnc3N3CC4(CCOCC4)C3)cc1)CC2 [Example 28, 6-(4-(2-(7-oxa-2-azaspiro[3.5]nonan-2-yl)nicotinamido)benzoyl)-N-(2,4,6-trifluorophenyl)-5,6-dihydro-4H-benzo[b] thieno[2,3-d]azepine-2-carboxamide] | 41.4 | 0.17 | 66 | 96 | > 13.8 | 
O=C(Nc1c(F)cccc1Cl)c1cc2c(s1)-c1ccccc1N(C(=O)c1ccc(NC(=O)c3cccnc3N3CC4(CCOCC4)C3)cc1F)CC2 [Example 31, 6-(4-(2-(7-oxa-2-azaspiro[3.5]nonan-2-yl)nicotinamido)-2-fluorobenzoyl)-N-(2-chloro-6-fluorophenyl)-5,6-dihydro-4H-benzo[b]thieno[2,3-d]azepine-2-carboxamide] | 49.6 | 0.1 | 90 | 100 | > 13.5 | 
Cc1cnc(N2CC3(CCOCC3)C2)c(C(=O)Nc2ccc(C(=O)N3CCc4cc(C(=O)Nc5ccccc5)sc4-c4ccccc43)cc2)c1 [Example 32, 6-(4-(5-methyl-2-(7-oxa-2-azaspiro[3.5]nonan-2-yl)nicotinamido)benzoyl)-N-phenyl-5,6-dihydro-4H-benzo[b] thieno[2,3-d]azepine-2-carboxamide] | 38.2 | < 0.015 | 81 | 100 | > 14.6 | 
Cc1cnc(N2CC3(CCOCC3)C2)c(C(=O)Nc2ccc(C(=O)N3CCc4cc(C(=O)Nc5ccccc5Cl)sc4-c4ccccc43)cc2)c1 [Example 34, N-(2-chlorophenyl)-6-(4-(5-methyl-2-(7-oxa-2-azaspiro [3.5]nonan-2-yl)nicotinamido)benzoyl)-5,6-dihydro-4H-benzo[b]thieno[2,3-d]azepine-2-carboxamide] | 38.5 | 0.11 | 86 | 100 | > 13.9 | 
Cc1cnc(N2CC3(CCOCC3)C2)c(C(=O)Nc2ccc(C(=O)N3CCc4cc(C(=O)Nc5ccccc5C)sc4-c4ccccc43)cc2)c1 [Example 35, 6-(4-(5-methyl-2-(7-oxa-2-azaspiro[3.5]nonan-2-yl)nicotinamido)benzoyl)-N-(o-tolyl)-5,6-dihydro-4H-benzo[b] thieno[2,3-d]azepine-2-carboxamide] | 62.8 | 0.14 | 70 | 100 | > 14.3 | 
Cc1ccc(C(=O)Nc2ccc(C(=O)N3CCc4cc(C(=O)Nc5c(C)cccc5F)sc4-c4ccccc43)cc2)c(N2CC3(CCOCC3)C2)n1 [Example 40, N-(2-fluoro-6-methylphenyl)-6-(4-(6-methyl-2-(7-oxa-2-azaspiro[3.5]nonan-2-yl)nicotinamido)benzoyl)-5,6-dihydro-4H-benzo[b]thieno[2,3-d]azepine-2-carboxamide] | 41.3 | 0.15 | 80 | 100 | > 14 | 

These reach a lower IC50 (RSV B Washington strain). Values come first.

IC50 (RSV B Washington strain) [nM] | IC50 (RSV A2 strain) [nM] | Compound | inhibition at 1 µg/mL (RSV B Washington strain) [%] | inhibition at 0.1 µg/mL (RSV A2 strain) [%] | CC50 at 5 days [1] [µM] | inhibition at 0.01 µg/mL (RSV A2 strain) [%]
27.9 | 0.13 | O=C(Nc1ccccc1F)c1cc2c(s1)-c1ccccc1N(C(=O)c1ccc(NC(=O)c3cccnc3N3CC4(CCOCC4)C3)cc1F)CC2 [Example 29, 6-(4-(2-(7-oxa-2-azaspiro[3.5]nonan-2-yl)nicotinamido)-2-fluorobenzoyl)-N-(2-fluorophenyl)-5,6-dihydro-4H-benzo[b]thieno[2,3-d]azepine-2-carboxamide] | 73 | 97 | > 14.2 | 
20.6 | 0.18 | Cc1cccc(F)c1NC(=O)c1cc2c(s1)-c1ccccc1N(C(=O)c1ccc(NC(=O)c3cccnc3N3CC4(CCOCC4)C3)cc1)CC2 [Example 25, 6-(4-(2-(7-oxa-2-azaspiro[3.5]nonan-2-yl)nicotinamido)benzoyl)-N-(2-fluoro-6-methylphenyl)-5,6-dihydro-4H-benzo[b]thieno[2,3-d]azepine-2-carboxamide] | 71 | 99 | > 14.2 | 
19.6 | 0.57 | Cc1cccc(C)c1NC(=O)c1cc2c(s1)-c1ccccc1N(C(=O)c1ccc(NC(=O)c3cccnc3N3CC4(CCOCC4)C3)cc1)CC2 [Example 24, 6-(4-(2-(7-oxa-2-azaspiro[3.5]nonan-2-yl)nicotinamido)benzoyl)-N-(2,6-dimethylphenyl)-5,6-dihydro-4H-benzo[b] thieno[2,3-d]azepine-2-carboxamide] | 65 | 88 | > 14.3 | 
18.4 | < 0.014 | Cc1cnc(N2CC3(CCOCC3)C2)c(C(=O)Nc2ccc(C(=O)N3CCc4cc(C(=O)Nc5ccc(F)cc5F)sc4-c4ccccc43)cc2)c1 [Example 38, N-(2,4-difluorophenyl)-6-(4-(5-methyl-2-(7-oxa-2-aza-spiro[3.5]nonan-2-yl)nicotinamido)benzoyl)-5,6-dihydro-4H-benzo[b]thieno[2,3-d]azepine-2-carboxamide] | 73 | 100 | > 13.9 | 
16.3 | 1.1 | COc1ccc(NC(=O)c2cc3c(s2)-c2ccccc2N(C(=O)c2ccc(NC(=O)c4cccnc4N4CC5(CCOCC5)C4)cc2)CC3)c(F)c1 [Example 23, 6-(4-(2-(7-oxa-2-azaspiro[3.5]nonan-2-yl)nicotinamido)benzoyl)-N-(2-fluoro-4-methoxyphenyl)-5,6-dihydro-4H-benzo[b]thieno[2,3-d]azepine-2-carboxamide] | 55 | 100 | > 13.9 | 
15.4 | 0.11 | Cc1ccc(C(=O)Nc2ccc(C(=O)N3CCc4cc(C(=O)Nc5c(F)cccc5Cl)sc4-c4ccccc43)cc2)c(N2CC3(CCOCC3)C2)n1 [Example 41, N-(2-chloro-6-fluorophenyl)-6-(4-(6-methyl-2-(7-oxa-2-azaspiro[3.5]nonan-2-yl)nicotinamido)benzoyl)-5,6-dihydro-4H-benzo[b]thieno[2,3-d]azepine-2-carboxamide] | 79 | 100 | > 13.6 | 
13.4 | 0.16 | C=Cc1cccc(F)c1NC(=O)c1cc2c(s1)-c1ccccc1N(C(=O)c1ccc(NC(=O)c3cc(C)cnc3N3CC4(CCOCC4)C3)cc1)CC2 [Example 36, N-(2-fluoro-6-vinylphenyl)-6-(4-(5-methyl-2-(7-oxa-2-azaspiro[3.5]nonan-2-yl)nicotinamido)benzoyl)-5,6-dihydro-4H-benzo[b]thieno[2,3-d]azepine-2-carboxamide] | 99 |  | > 13.7 | 95
7.2 | 0.15 | C#Cc1cccc(F)c1NC(=O)c1cc2c(s1)-c1ccccc1N(C(=O)c1ccc(NC(=O)c3cc(C)cnc3N3CC4(CCOCC4)C3)cc1)CC2 [Example 37, N-(2-ethynyl-6-fluorophenyl)-6-(4-(5-methyl-2-(7-oxa-2-azaspiro[3.5]nonan-2-yl)nicotinamido)benzoyl)-5,6-dihydro-4H-benzo[b]thieno[2,3-d]azepine-2-carboxamide] | 100 |  | > 13.8 | 100
